Measured values reported in patent publication EP1057825A1, “ISOFLAVANE DERIVATIVES AND IMMUNOPOTENTIATING COMPOSITIONS CONTAINING THE SAME” (SHIONOGI & CO., LTD., priority 1998, dated 1999).

What was measured:
mouse spleen cells = test: Action on the blastogenesis of mouse spleen cells (ConA-stimulated, MTT reduction method); type: cell-based, BALB/c mouse; conditions: ConA 1 µg/ml, 3 days, rate against no test compound = one; for activity at 0.1 µg/mL / activity at 0.2 µg/mL / activity at 0.39 µg/mL / activity at 0.78 µg/mL / activity at 1.56 µg/mL / activity at 3.13 µg/mL / activity at 6.25 µg/mL: Mus musculus, 72 h
Description: Serial two-fold dilutions (100 µl/well) with 10% FBS of test compounds which are dissolved in a dimethyl sulfoxide (DMSO) solution are obtained on a 96-well microplate, and used as test samples.
The spleen of a BALB/c mouse is aseptically isolated, and gently ground on a wire mesh with dropwise addition of sterilzed saline. The filtrate is passed through a nylon mesh (Becton Dickinson; pore size: 70 µm), thereby preparing a unicellular suspension.
(§1) After being washed twice with sterilized saline, the spleen cells are suspended in RPMI1460 containing 10% FCS and containing 1 µg/ml of concanavalin A (abbreviated as ConA: Sigma, U.S.) as well as an antibiotic (Sigma: Antibiotic Antimycotic), and dispensed into a 96-well microplate, in which 100 µl each of diluted test samples are previously dispensed, in amounts of 3 × 10^5 cells/100 µl/well.
Thereafter, culturing is carried out under 5% carbon dioxide gas at 37°C for 3 days, and then the blastogenesis of lymphocytes is measured by an MTT reduction method [Mosmann T, Journal of Immunological Method, vol. 65, p. 55, 1983]. The blastogenesis rate can be quantitated as a rate against the blastogenesis of those not having test compounds added thereto, which is defined as one. The presence of an immunoactivating action can be determined if the blastogenesis rate exceeds one.
Serial two-fold dilutions (100 µl/well) with RPMI1640 (Nikken Biomedical Laboratory) containing 10% FBS (bovine fetal serum: Dainippon Pharmaceutical Co., Ltd.) of test compounds which were dissoloved in a dimethylsulfoxide (DMSO) solution were obtained on a 96-well microplate, and used as test samples.
The spleen of a BALB/c mouse (a 6 week-old female) was aseptically isolated, and gently ground on a wire mesh with dropwise addition of sterilzed saline. The filtrate was passed through a nylon mesh (Becton Dickinson; pore size: 70 µm), thereby preparing a unicellular suspension.
as §1, with “cells were” for “cells are”, “samples had” for “samples are”, “previously been” for “previously”, “of 3×10^5” for “of 3 × 10^5”
Thereafter, culturing was carried out under 5% carbon dioxide gas at 37°C for 3 days, and then the blastogenesis of lymphocytes was measured by an MTT reduction method [Mosmann T, Journal of Immunological Method, vol. 65, p. 55, 1983]. The results are shown in [Table 4].

mouse bone marrow cells = test: Metabolism promoting action on mouse bone marrow cells (mitochondrial metabolism activity, MTT reduction method); type: cell-based, BALB/c mouse; conditions: 5 days, magnitude of metabolism, no test compound = one; for activity at 0.39 µg/mL / activity at 0.78 µg/mL / activity at 1.56 µg/mL / activity at 3.13 µg/mL / activity at 6.25 µg/mL / activity at 12.5 µg/mL: Mus musculus, Bone marrow cell, 120 h
Excerpt: The presence of an immunoactivating action can be determined if the magnitude of metabolism exceeds one, where the cellular metabolism of cells not having test compounds added thereto is defined as one.

[1] = concentration of additions in medium 0.1 μg/ml
[2] = concentration of additions in medium 0.2 μg/ml
[3] = concentration of additions in medium 0.39 μg/ml
[4] = concentration of additions in medium 0.78 μg/ml
[5] = concentration of additions in medium 1.56 μg/ml
[6] = concentration of additions in medium 3.13 μg/ml
[7] = concentration of additions in medium 6.25 μg/ml
[8] = Test compound concentration 0.39 µg/ml
[9] = Test compound concentration 0.78 µg/ml
[10] = Test compound concentration 1.56 µg/ml
[11] = Test compound concentration 3.13 µg/ml
[12] = Test compound concentration 6.25 µg/ml
[13] = Test compound concentration 12.5 µg/ml

Row | Molecule | activity at 0.1 µg/mL (mouse spleen cells; [1]) [%] | activity at 0.2 µg/mL (mouse spleen cells; [2]) [%] | activity at 0.39 µg/mL (mouse spleen cells; [3]) [%] | activity at 0.78 µg/mL (mouse spleen cells; [4]) [%] | activity at 1.56 µg/mL (mouse spleen cells; [5]) [%] | activity at 3.13 µg/mL (mouse spleen cells; [6]) [%] | activity at 6.25 µg/mL (mouse spleen cells; [7]) [%] | activity at 0.39 µg/mL (mouse bone marrow cells; [8]) [%] | activity at 0.78 µg/mL (mouse bone marrow cells; [9]) [%] | activity at 1.56 µg/mL (mouse bone marrow cells; [10]) [%] | activity at 3.13 µg/mL (mouse bone marrow cells; [11]) [%] | activity at 6.25 µg/mL (mouse bone marrow cells; [12]) [%] | activity at 12.5 µg/mL (mouse bone marrow cells; [13]) [%] | further results
1 | 3-(2,4-dimethoxy-3-(3-methyl-2-butenyl)phenyl)-3,4-dihydro-5-hydroxy-7-methoxy-6-(3-methyl-2- butenyl)-2H-1-benzopyran [A-6] | – | – | – | – | – | – | – | – | – | – | – | – | – | blastogenesis rate (mouse spleen cells; [1]): 1.12; blastogenesis rate (mouse spleen cells; [2]): 1.05; blastogenesis rate (mouse spleen cells; [3]): 1.12; blastogenesis rate (mouse spleen cells; [4]): 1.26; blastogenesis rate (mouse spleen cells; [5]): 1.55; blastogenesis rate (mouse spleen cells; [6]): 2.46; blastogenesis rate (mouse spleen cells; [7]): 3.28; metabolism activity of mouse bone marrow cells (mouse bone marrow cells; [8]): 0.97; metabolism activity of mouse bone marrow cells (mouse bone marrow cells; [9]): 1.05; metabolism activity of mouse bone marrow cells (mouse bone marrow cells; [10]): 1.20; metabolism activity of mouse bone marrow cells (mouse bone marrow cells; [11]): 1.52; metabolism activity of mouse bone marrow cells (mouse bone marrow cells; [12]): 0.77; metabolism activity of mouse bone marrow cells (mouse bone marrow cells; [13]): 0.51
2 | COc1c(CC=C(C)C)c(O)cc2c1CC(c1ccc(O)c(CC=C(C)C)c1O)CO2 (stereo not shown) [A-1, 4-[3,4-dihydro-7-hydroxy-5-methoxy-6-(3-methyl-2-butenyl)-2H-1-benzopyran-3-yl]-2-(3-methyl-2-butenyl)-1,3-benzenediol] | 113 | 109 | 129 | 157 | 188 | 225 | 171 | 114 | 101 | 93 | 127 | 198 | 58 | –
3 | COc1ccc(C2COc3cc(OC)c(CC=C(C)C)c(OC)c3C2)c(OC)c1CC=C(C)C (stereo not shown) [A-3, 3-(2,4-dimethoxy-3-(3-methyl-2-butenyl)phenyl)-3,4-dihydro-5,7-dimethoxy-6-(3-methyl-2-butenyl)-2H-1-benzopyran] | 98 | 88 | 88 | 79 | 83 | 120 | 246 | 111 | 108 | 114 | 114 | 111 | 62 | –
4 | COc1ccc(C2COc3cc(OC)c(CC=C(C)C)c(OC)c3C2)c(O)c1CC=C(C)C (stereo not shown) [A-4, 3-(2-hydroxy-4-methoxy-3-(3-methyl-2-butenyl)-phenyl)-3,4-dihydro-5,7-dimethoxy-6-(3-methyl-2-butenyl)-2H-1-benzopyran] | 105 | 101 | 109 | 113 | 155 | 231 | 375 | 107 | 107 | 121 | 132 | 133 | 58 | –
5 | COc1cc2c(c(OC)c1CC=C(C)C)CC(c1ccc(O)c(CC=C(C)C)c1OC)CO2 (stereo not shown) [A-5, 3-(4-hydroxy-2-methoxy-3-(3-methyl-2-butenyl)-phenyl)-3,4-dihydro-5,7-dimethoxy-6-(3-methyl-2-butenyl)-2H-1-benzopyran] | 101 | 96 | 107 | 111 | 118 | 209 | 239 | 116 | 120 | 138 | 146 | 55 | 53 | –
6 | COc1ccc(C2COc3cc(O)c(CC=C(C)C)c(OC)c3C2)c(O)c1CC=C(C)C (stereo not shown) [A-7, 3-(2-hydroxy-4-methoxy-3-(3-methyl-2-butenyl)-phenyl)-3,4-dihydro-5-methoxy-7-hydroxy-6-(3-methyl-2-butenyl)-2H-1-benzopyran] | 113 | 107 | 132 | 161 | 195 | 293 | 408 | 103 | 112 | 139 | 152 | 51 | 51 | –
7 | COc1c(C2COc3cc(O)c(CC=C(C)C)c(OC)c3C2)ccc(O)c1CC=C(C)C (stereo not shown) [A-8, 3-(4-hydroxy-2-methoxy-3-(3-methyl-2-butenyl)-phenyl)-3,4-dihydro-5-methoxy-7-hydroxy-6-(3-methyl-2-butenyl)-2H-1-benzopyran] | 111 | 99 | 112 | 122 | 103 | 34 | 23 | 113 | 127 | 161 | 156 | 50 | 51 | –
